The record followed here is patent US20220315895A1, “METHODS OF MAKING OLIGOPOTENT AND UNIPOTENT PRECURSORS” (Transfusion Health, LLC, priority 2019, published 2022).

The subject of assay [1] is CD34+ cells from cord blood. As to the kind of experiment: HSC Expansion Culture, 21 and 63 days (Example 38). It counts as cell-based, human. The conditions noted are these: +Formula I Condition (Compound 1.010 8 μM). Here is the method:
CD34+ cells from cord blood were purchased from STEMCELL Technologies. Primary human CD34+ cells were isolated by the supplier from cord blood samples using positive immunomagnetic separation techniques. Cells were thawed, gradually brought to room temperature, then washed.
Cells were placed in overnight culture in StemSpan with 100 ng/ml each of FLT3L, TPO, SCF, and IL-6. Eighteen hours later (day 1), cells were counted and immunophenotyped (flow cytometry on an Invitrogen Attune N×T cytometer).
A portion of these cells were washed and placed directly into various “Differentiation Cultures,” described below. The remainder of cells were placed into “HSC Expansion Culture,” described here. Approximately 1000 live cells were plated into duplicate 25 cm^2 flasks; exact cell numbers dispensed per flask were quantified with flow cytometry for later calculations. […]
Following 21 and 63 days in Expansion Culture, prior to passaging or CD34 re-enrichment, a sample was taken from each flask for analysis of phenotypes (flow cytometry on an Invitrogen Attune N×T cytometer). Cell numbers calculated for these analyses take into account passaging of cells on prior days. Fold expansion of CD34+ cells was calculated by dividing the cell numbers at later days (21 and 63) by the number of CD34+ cells quantified at day 1.

In assay [2] the test system is CD34+ cells from cord blood. As to the kind of experiment: HSC Expansion Culture, 14 to 64 days (Example 42). Type of assay: cell-based, human. The protocol: Cryopreserved CD34+ cells from cord blood were purchased from STEMCELL Technologies. Primary human CD34+ cells were isolated by the supplier from cord blood samples using positive immunomagnetic separation techniques. Cells were thawed, gradually brought to room temperature, then washed. Cells were primed for expansion with overnight culture in StemSpan SFEM I with 100 ng/mL each of FLT3L, TPO, SCF, and IL-6. Eighteen-to-twenty-four hours later (day 1), cells were counted and immunophenotyped (flow cytometry on an Invitrogen Attune N×T cytometer). Cells were then placed into “HSC Expansion Culture,” described here, or placed directly into Differentiation Culture with STEMCELL's Myeloid StemSpan Myeloid Expansion Supplement (Granulocyte). Media for expanding CD34+ cell numbers was prepared in StemSpan SFEM II (STEMCELL) and added to duplicate 25 cm^2 flasks (4 ml total volume per flask). Expansion Culture conditions also included an antibiotic solution containing penicillin, streptomycin, and amphotericin B to avoid contamination. Additional media components and concentrations used for the conditions tested were as described above in Table 9. All incubations for Expansion Culture took place at 3% oxygen (controlled by nitrogen) and 5% CO2. During Expansion Culture, samples were taken for cell counting and phenotyping. […]

As to `CC(C)(C)C(=O)Nc1ccc2c(c1)C(O)c1ccccc1-2` (stereo not shown) [Compound 1.010], the results for the “fold expansion of CD34+ cells” value in assay [1] (21 days) and in assay [1] (63 days) were 600 fold and 244,000 fold, respectively. The “fold expansion in CD34+ cell numbers” value was “about 270 fold” in assay [2] (+Formula I conditions (Compound 1.010 8 μM), day 14) and “about 86,000 fold” in assay [2] (+Formula I conditions, day 64).
